Measurements taken from patent US9346761B2, “Arginine methyltransferase inhibitors and uses thereof” (Epizyme, Inc., priority 2013, dated 2016).

Columns and labels:
Human CARM1 (PRMT4) = target: T1, Human CARM1 (PRMT4) (Homo sapiens, UniProt Q86X55); assay: CARM1 biochemical assay (3H-SAM Flashplate, peptide substrate)
T1 construct: Flag-CARM1-His was eluted with 200 ug/ml FLAG peptide in buffer A; made in house; host or cells: HEK 293F cells (BacMam virus, pFastBacMam)
T1 sequence (Q86X55 with tags, fused parts or gaps isoform Q86X55-1): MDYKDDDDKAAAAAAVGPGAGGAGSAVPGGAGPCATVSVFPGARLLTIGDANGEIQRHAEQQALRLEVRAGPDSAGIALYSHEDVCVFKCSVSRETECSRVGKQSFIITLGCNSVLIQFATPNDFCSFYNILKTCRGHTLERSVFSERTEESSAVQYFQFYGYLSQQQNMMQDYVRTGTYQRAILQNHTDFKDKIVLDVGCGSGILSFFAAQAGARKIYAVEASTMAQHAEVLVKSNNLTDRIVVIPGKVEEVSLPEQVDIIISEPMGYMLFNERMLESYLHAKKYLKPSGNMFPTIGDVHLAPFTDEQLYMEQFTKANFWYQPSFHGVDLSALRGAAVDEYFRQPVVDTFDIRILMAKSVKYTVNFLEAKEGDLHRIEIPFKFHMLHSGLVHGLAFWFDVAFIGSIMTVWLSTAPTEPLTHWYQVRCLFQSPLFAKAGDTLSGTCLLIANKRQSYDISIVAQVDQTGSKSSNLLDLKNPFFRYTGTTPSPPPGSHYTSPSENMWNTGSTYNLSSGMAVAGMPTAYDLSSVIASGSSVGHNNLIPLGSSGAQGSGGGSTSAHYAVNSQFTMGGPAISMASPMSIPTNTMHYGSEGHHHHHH
Text: General Materials. S-adenosylmethionine (SAM), S-adenosylhomocysteine (SAH), bicine, Tween20, dimethylsulfoxide (DMSO), bovine skin gelatin (BSG), sodium butyrate and Tris(2-carboxyethyl)phosphine hydrochloride solution (TCEP) were purchased from Sigma-Aldrich at the highest level of purity possible. ^3H-SAM was purchase from American Radiolabeled Chemicals with a specific activity of 80 Ci/mmol. 384-well streptavidin Flashplates were purchased from PerkinElmer.
Substrates. Peptide representative of human histone H3 residues 16-30 was synthesized with an N-terminal linker-affinity tag motif and a C-terminal amide cap by 21st Century Biochemicals.
Protein Expression. Recombinant baculovirus were generated according to Bac-to-Bac kit instructions (Life Technologies). […] Infections were carried out at 37° C. for 48 hours, harvested by centrifugation, and stored at −80° C. for purification.
Protein Purification. […] Column was washed with 500 mM NaCl in buffer A and Flag-CARM1-His was eluted with 200 ug/ml FLAG peptide in buffer A. Pooled fractions were dialyzed in 20 mM Tris, 150 mM NaCl, 5% glycerol and 1 mM DTT, pH 7.8.
General Procedure for CARM1 Enzyme Assays on Peptide Substrates. The assays were all performed in a buffer consisting of 20 mM Bicine (pH=7.6), 1 mM TCEP, 0.005% BSG, and 0.002% Tween 20, prepared on the day of use. […] DMSO (1 ul) was added to Columns 11, 12, 23, 24, rows A-H for the maximum signal control and 1 ul of SAH, a known product and inhibitor of CARM1, was added to columns 11, 12, 23, 24, rows I-P for the minimum signal control. A cocktail (40 ul) containing the CARM1 enzyme was added by Multidrop Combi (Thermo-Fisher). The compounds were allowed to incubate with CARM1 for 30 min at room temperature, then a cocktail (10 ul) containing ^3H-SAM and peptide was added to initiate the reaction (final volume=51 ul). […] The assays were stopped by the addition of non-radiolabeled SAM (10 ul) to a final concentration of 300 uM, which dilutes the ^3H-SAM to a level where its incorporation into the peptide substrate is no longer detectable. 50 ul of the reaction in the 384-well polypropylene plate was then transferred to a 384-well Flashplate and the biotinylated peptides were allowed to bind to the streptavidin surface for at least 1 hour before being washed once with 0.1% Tween20 in a Biotek ELx405 plate washer. The plates were then read in a PerkinElmer TopCount plate reader to measure the quantity of ^3H-labeled peptide bound to the Flashplate surface, measured as disintegrations per minute (dpm) or alternatively, referred to as counts per minute (cpm).
Where dpm=disintegrations per minute, cmpd=signal in assay well, and min and max are the respective minimum and maximum signal controls.
Where top and bottom are the normally allowed to float, but may be fixed at 100 or 0 respectively in a 3-parameter fit. The Hill Coefficient normally allowed to float but may also be fixed at 1 in a 3-parameter fit. Y is the % inhibition and X is the compound concentration.

[1] = target: T2, Full-length human PRMT1 isoform 1 (Homo sapiens, UniProt Q99873); assay: PRMT1 biochemical assay (3H-SAM Flashplate, peptide substrate)
T2 construct: GST-tagged PRMT1; made in house; host or cells: High Five insect cells (baculovirus, pFastBacI)
In short: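 Tritiated methyl transfer from 3H-SAM onto biotinylated peptide, captured on streptavidin Flashplates and counted. Baculovirus-expressed GST-PRMT1 and compound were preincubated 30 min at room temperature in Bicine buffer pH 7.6. Cold SAM at 300 uM final ended the reaction.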

T2 sequence (Q99873 with tags, fused parts or gaps): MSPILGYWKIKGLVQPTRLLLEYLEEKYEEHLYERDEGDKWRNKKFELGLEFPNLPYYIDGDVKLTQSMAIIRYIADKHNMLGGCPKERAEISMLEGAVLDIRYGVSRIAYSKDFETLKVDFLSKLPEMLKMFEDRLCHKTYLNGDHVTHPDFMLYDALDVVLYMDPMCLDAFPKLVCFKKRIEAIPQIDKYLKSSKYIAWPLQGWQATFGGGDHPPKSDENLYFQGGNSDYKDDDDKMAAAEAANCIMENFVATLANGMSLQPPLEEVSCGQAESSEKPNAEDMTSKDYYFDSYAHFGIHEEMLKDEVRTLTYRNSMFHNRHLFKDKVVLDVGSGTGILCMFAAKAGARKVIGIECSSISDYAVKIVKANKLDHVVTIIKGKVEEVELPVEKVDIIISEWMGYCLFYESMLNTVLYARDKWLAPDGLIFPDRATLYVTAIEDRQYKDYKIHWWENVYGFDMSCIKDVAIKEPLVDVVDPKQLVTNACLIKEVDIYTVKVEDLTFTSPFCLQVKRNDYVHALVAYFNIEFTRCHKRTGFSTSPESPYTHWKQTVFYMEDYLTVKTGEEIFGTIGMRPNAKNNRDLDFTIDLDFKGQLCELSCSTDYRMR

| SMILES | IC50 (Human CARM1 (PRMT4)) | IC50 [1] |
| --- | --- | --- |
| CN(CCN)Cc1n[nH]cc1-c1ccc(C(F)(F)F)cc1 [Compound 103] | 1010 to 3000 nM | < 100 nM |
| COc1ccc(-c2n[nH]cc2CN(C)CCN)cc1Cl [Compound 125] | 1010 to 3000 nM | < 100 nM |
| CCn1cc(CN(C)CCNC)c(-c2ccc(F)cc2)n1 [Compound 8] | 3010 to 10000 nM | 1010 to 3000 nM |
| CC(C)Oc1ccc(-c2n[nH]cc2CN(C)CCN)cc1F [Compound 97] | 101 to 1000 nM | < 100 nM |
| CN(CCN)Cc1c[nH]nc1-c1ccc(F)cc1F [Compound 99] | 3010 to 10000 nM | < 100 nM |
| CN(CCN)Cc1n[nH]cc1-c1ccc(C2CCOCC2)cc1 [Compound 145] | 3010 to 10000 nM | < 100 nM |
| Cc1ccc(C#N)cc1-c1n[nH]cc1CN(C)CCN [Compound 158] | > 10000 nM | 1010 to 3000 nM |
| CC(C)Oc1ccc(-c2c[nH]nc2CN(C)CCN)cc1F [Compound 144] | 3010 to 10000 nM | < 100 nM |
| CN(CCN1CCCC1)Cc1c[nH]nc1-c1ccc(C#N)cc1 [Compound 139] | > 10000 nM | > 10000 nM |
| CN(CCN)Cc1c[nH]nc1-c1ccc(C(F)(F)F)c(F)c1 [Compound 141] | 1010 to 3000 nM | < 100 nM |
| CCOC(=O)c1cccc(-c2n[nH]cc2CN(C)CCN)c1 [Compound 150] | 1010 to 3000 nM | < 100 nM |
| CN(CCN)Cc1c[nH]nc1-c1ccc(Cl)cc1F [Compound 132] | 1010 to 3000 nM | < 100 nM |
| CN(CCN)Cc1c[nH]nc1-c1cccc(Cl)c1 [Compound 122] | 101 to 1000 nM | < 100 nM |
| Cc1ccc(-c2n[nH]cc2CN(C)CCN)c(F)c1 [Compound 108] | 1010 to 3000 nM | < 100 nM |
| COc1ccc(Cl)cc1-c1n[nH]cc1CN(C)CCN [Compound 157] | > 10000 nM | 1010 to 3000 nM |
| CN(CCN)Cc1c[nH]nc1-c1ccccc1C#N [Compound 140] | > 10000 nM | 101 to 1000 nM |
| CC(O)c1ccc(-c2n[nH]cc2CN(C)CCN)cc1 (stereo not shown) [Compound 115] | 3010 to 10000 nM | < 100 nM |
| COc1ccc(-c2n[nH]cc2CN(C)CCN)cc1 [Compound 153] | 1010 to 3000 nM | < 100 nM |
| CC(C)c1ccc(-c2c[nH]nc2CN(C)CCN)cc1 [Compound 101] | 3010 to 10000 nM | < 100 nM |
| CN(CCN)Cc1c[nH]nc1-c1ccc(Cl)c(F)c1 [Compound 118] | 101 to 1000 nM | < 100 nM |
| CN(CCN)Cc1n[nH]cc1-c1ccc(OC(F)F)cc1 [Compound 138] | 1010 to 3000 nM | < 100 nM |
| COc1cc(-c2n[nH]cc2CN(C)CCN)ccc1F [Compound 142] | 1010 to 3000 nM | < 100 nM |
| COc1ccccc1-c1n[nH]cc1CN(C)CCN [Compound 109] | 3010 to 10000 nM | 101 to 1000 nM |
